Key:
[1] = RSV long CPE assay (cytopathic effect assay), CC50 toxicity in vitro; assay type: cell-based; conditions: human, Hep2 cells, CCK-8 readout, top concentration 100 μM
Protocol: (§1) Detect EC50 and CC50 values of anti RSV respiratory tract virus compounds through the cytopathic effect assay.
(§2) The cell plate was centrifugated (300 rpm) to make the cells adherent to the wall, placed into a 37° C., 5% CO2 incubator overnight.
(§3) 1) the compound in 100% DMSO underwent a semi logarithmic dilution, then was added to the cell plate with a Echo liquid handler. Ensure that the final concentration of DMSO was 1%;
(§4) 2) Cell-control hole: no compound and viruse were added; virus-control hole: no compound was added.
(§5) 2) add CCK-8 (Dojindo-CK04-20, 6 μL/hole) to 384 well plate with Multidrop® automatic liquid distributor;
(§6) 3) place the plate at a 37° C., 5% CO2 culture incubator for 3˜4 h, read the absorbance value with SPECTRA max 340PC_Molecular device at 450 nm and 630 nm;

[2] = test system: RSV respiratory tract virus (A long strain); experiment: RSV long CPE assay (cytopathic effect assay), EC50; assay type: cell-based; conditions: human respiratory syncytial virus, HEp-2, 120 h; Hep2 cells infected with RSV A long strain, 5 days, CCK-8 readout
Protocol: as §1
Virus strain: RSV respiratory tract virus (A long strain)
as §2, §3, §4
dilute RSV viruses to 100 TCID50/30 μL with medium cultured with 4° C. cells, and then add the diluted viruses to a cell plate (30 μL/hole) with Multidrop® automatic liquid distributor, and then placed into a 37° C., 5% CO2 culture incubator for 5 days.
1) after 5 days, observe the pathological change in each hole.
as §5, §6

SMILES: CC(C)OC(=O)N1CC2(C1)C(=O)N(Cc1nc3c(n1CCCCO)CCCC3)c1ccccc12 [Embodiment 62, Isopropyl 1′-((1-(4-hydroxybutyl)-4,5,6,7-tetrahydro-1H-benzo[d]imidazol-2-yl)methyl)-2′-oxospiro[azetidine-3,3′-indoline]-1-carboxylate]
- CC50 at 5 days [1]: > 100000 nM
- EC50 [2]: < 100 nM

SMILES: O=C1N(Cc2nc3c(n2CCCCO)CCCC3)c2ccccc2C12CC2 [Embodiment 63, 1′-((1-(4-Hydroxybutyl)-4,5,6,7-tetrahydro-1H-benzo[d]imidazol-2-yl)methyl)spiro[cyclopropane-1,3′-indoline]-2′-one]
- CC50 at 5 days [1]: > 100000 nM
- EC50 [2]: < 100 nM

SMILES: CC(C)OC(=O)N1CC2(C1)C(=O)N(Cc1nc3c(n1CCCC(F)F)CCCC3)c1ccccc12 [Embodiment 64, Isopropyl 1′-((1-(4,4-difluorobutyl)-4,5,6,7-tetrahydro-1H-benzo[d]imidazol-2-yl)methyl)-2′-oxospiro[azetidine-3,3′-indoline]-1-carboxylate]
- CC50 at 5 days [1]: > 100000 nM
- EC50 [2]: < 100 nM

SMILES: CC(C)OC(=O)N1CC2(C1)C(=O)N(Cc1nc3c(n1CCCC(F)(F)F)CCCC3)c1ccccc12 [Embodiment 65, Isopropyl 2′-oxo-1′-((1-(4,4,4-trifluorobutyl)-4,5,6,7-tetrahydro-1H-benzo[d]imidazol-2-yl)methyl)spiro[azetidine-3,3′-indoline]-1-carboxylate]
- CC50 at 5 days [1]: > 100000 nM
- EC50 [2]: < 100 nM

SMILES: CC(C)OC(=O)N1CC2(C1)C(=O)N(Cc1nc3c(n1CC(F)(F)CCF)CCCC3)c1ccccc12 [Embodiment 66, Isopropyl 2′-oxo-1′-((1-(2,2,4-trifluorobutyl)-4,5,6,7-tetrahydro-1H-benzo[d]imidazol-2-yl)methyl)spiro[azetidine-3,3′-indoline]-1-carboxylate]
- CC50 at 5 days [1]: > 100000 nM
- EC50 [2]: < 100 nM

SMILES: CCC(F)(F)Cn1c(CN2C(=O)C3(CN(C(=O)OC(C)C)C3)c3ccccc32)nc2c1CCCC2 [Embodiment 67, Isopropyl 1′-((1-(2,2-difluorobutyl)-4,5,6,7-tetrahydro-1H-benzo[d]imidazol-2-yl)methyl)-2′-oxospiro[azetidine-3,3′-indoline]-1-carboxylate]
- CC50 at 5 days [1]: > 100000 nM
- EC50 [2]: 100 to 1000 nM

SMILES: CC(C)OC(=O)N1CC2(C1)C(=O)N(Cc1nc3c(n1CC(=O)C(C)C)CCCC3)c1ccccc12 [Embodiment 68, Isopropyl 1′-((1-(3-methyl-2-oxobutyl)-4,5,6,7-tetrahydro-1H-benzo[d]imidazol-2-yl)methyl)-2′-oxospiro[azetidine-3,3′-indoline]-1-carboxylate]
- CC50 at 5 days [1]: > 100000 nM
- EC50 [2]: 100 to 1000 nM

SMILES: CC(C)OC(=O)N1CC2(C1)C(=O)N(Cc1nc3c(n1CC(F)(F)C(C)C)CCCC3)c1ccccc12 [Embodiment 69, Isopropyl 1′-((1-(2,2-difluoro-3-methylbutyl)-4,5,6,7-tetrahydro-1H-benzo[d]imidazol-2-yl)methyl)-2′-oxospiro[azetidine-3,3′-indoline]-1-carboxylate]
- CC50 at 5 days [1]: > 100000 nM
- EC50 [2]: < 100 nM

SMILES: CC(C)OC(=O)N1CC2(C1)C(=O)N(Cc1nc3c(n1/C=C(\F)C(C)C)CCCC3)c1ccccc12 [Embodiment 70, Isopropyl (Z)-1′-((1-(2-fluoro-3-methylbut-1-en-1-yl)-4,5,6,7-tetrahydro-1H-benzo[d]imidazol-2-yl)methyl)-2′-oxospiro[azetidine-3,3′-indoline]-1-carboxylate]
- CC50 at 5 days [1]: > 100000 nM
- EC50 [2]: < 100 nM

SMILES: CCOC(=O)N1CC2(C1)C(=O)N(Cc1nc(CC)c(CC)n1CCCCO)c1ccccc12 [Embodiment 101, Ethyl 1′-((4,5-diethyl-1-(4-hydroxybutyl)-1H-imidazol-2-yl)methyl)-2′-oxospiro[azetidine-3,3′-indoline]-1-carboxylate]
- CC50 at 5 days [1]: > 100000 nM

Reference: patent US9850251B2, “Imidazole derivative used as antiviral agent and use therof in preparation of medicament” (priority 2013, dated 2017)
